Results on 24 compounds are retold here after patent US8263610B2, “Substituted imidazolyl-5,6-dihydrobenzo[N]isoquinoline compounds” (ArQule, Inc., priority 2008, dated 2012).

For data set [1], the system named is DLD-1 cells. Description: MTS assay, inhibition of cell growth. The format is cell-based. As to conditions: Homo sapiens, compound at 10 μM, 72 hours. How it is done:
(§1) MDA-MB-231, DLD-1, Kato III NCI-H1299, PACA-2 cells, were maintained at 37° C., 5% CO2 in DMEM media supplemented with 10% fetal bovine serum, penicillin/streptomycin and fungizone (Invitrogen). Cells were seeded into 96-well tissue culture plates at 3000 per well and cultured at 37° C. for 18 hours. Test compounds were dissolved and diluted to 300× in DMSO then further diluted 1:40 in DMEM before addition to cells (1:7.5 dilution). Cells were incubated with test compounds for 72 hours followed by incubation with tetrazolium compound (3-(4,5-dimethylthiazol-2-yl)-5-(3-carboxymethoxyphenyl)-2-(4-sulfophenyl)-2H-tetrazolium, inner salt; MTS) and the electron coupling reagent, phenazine methosulfate (PMS) for 4 hours. […] The ability of compounds to inhibit cell growth in this assay is correlated with the reduction of dehydrogenase enzyme activity found in metabolically active cells. The measurement of the absorbance of the formazan was assessed using an ENVISION™ (Perkin Elmer) microplate reader at 492 nm.
For orientation: Tetrazolium assays rely on reduction of a dye to a coloured formazan, in cell work by metabolically active cells.

Data set [2] relates to MDA-MB-231 cells. Description: MTS assay, inhibition of cell growth. It counts as cell-based. The conditions noted are these: Homo sapiens, compound at 10 μM, 72 hours. How it is done:
as §1

In data set [3] the test system is PACA-2 cells. Put plainly: MTS assay, inhibition of cell growth. As to conditions: compound at 10 μM, 72 hours. It counts as cell-based. As to the method: as §1
Data set [4] relates to Kato III cells. Put plainly: MTS assay, inhibition of cell growth. It counts as cell-based. As to conditions: Homo sapiens, compound at 10 μM, 72 hours. How it is done:
as §1

In general, inhibition refers to the share of the control response that was lost under treatment. Higher therefore signals a response far below the control. Take `N[C@H](C(=O)N1CCc2c(cnc3[nH]ncc23)C1)c1ccccc1` [(1S)-2-oxo-1-phenyl-2-(3,6,8,9-tetrahydro-7H-pyrazolo[3,4-c][2,7]naphthyridin-7-yl)ethanamine]: the inhibition at 10 µM is below 24% in data set [1], 50 to 74% in data set [2] and 50 to 74% in data set [3].
A word on the melting point: it is the temperature, or range, at which the solid turns liquid. As for `Cc1nc(-c2cccc(NC(=O)N3CCc4c(cnc5[nH]ncc45)C3)c2)cs1` [Example 401, N-(3-(2-methylthiazol-4-yl)phenyl)-8,9-dihydro-3H-pyrazolo[3,4-c][2,7]naphthyridine-7(6H)-carboxamide], the melting point was above 155 °C.
The compound `Cc1nc(-c2cccc(NC(=O)N3CCc4c(cnc5[nH]nc(Br)c45)C3)c2)cs1` [Example 402, 1-bromo-N-(3-(2-methylthiazol-4-yl)phenyl)-8,9-dihydro-3H-pyrazolo[3,4-c][2,7]naphthyridine-7(6H)-carboxamide] yielded a melting point of 258 to 261 °C.
In turn, `Cc1cncc(Oc2cccc(NC(=O)N3CCc4c(cnc5[nH]nc(Br)c45)C3)c2)n1` [Example 403, 1-bromo-N-{3-[(6-methylpyrazin-2-yl)oxy]phenyl}-3,6,8,9-tetrahydro-7H-pyrazolo[3,4-c][2,7]naphthyridine-7-carboxamide] gave a melting point of 221 to 223 °C.
With `Cc1nc(-c2cccc(NC(=O)N3CCc4c(cnc5[nH]nc(Br)c45)C3)c2)no1` [Example 404, 1-bromo-N-[3-(5-methyl-1,2,4-oxadiazol-3-yl)phenyl]-3,6,8,9-tetrahydro-7H-pyrazolo[3,4-c][2,7]naphthyridine-7-carboxamide], the melting point is above 152 °C.
`Cc1nc(-c2cccc(NC(=O)N3CCc4c(cnc5[nH]ncc45)C3)c2)no1` [Example 406, N-(3-(5-methyl-1,2,4-oxadiazol-3-yl)phenyl)-8,9-dihydro-3H-pyrazolo[3,4-c][2,7]naphthyridine-7(6H)-carboxamide] gave a melting point above 140 °C.
The compound `O=C(Nc1ccccc1)N1CCc2c(cnc3[nH]nc(-c4ccccc4)c23)C1` [Example 407, N,1-diphenyl-8,9-dihydro-3H-pyrazolo[3,4-c][2,7]naphthyridine-7(6H)-carboxamide] had a melting point of 150 to 170 °C.
Same read-out and setting: then `O=C(Nc1cccc(Cc2ccccc2)c1)N1CCc2c(cnc3[nH]ncc23)C1` [Example 408, N-(3-benzylphenyl)-8,9-dihydro-3H-pyrazolo[3,4-c][2,7]naphthyridine-7(6H)-carboxamide], with 175 to 178 °C.
Take `COc1ccc(-c2ccccc2)cc1NC(=O)N1CCc2c(cnc3[nH]ncc23)C1` [Example 409, N-(4-methoxybiphenyl-3-yl)-8,9-dihydro-3H-pyrazolo[3,4-c][2,7]naphthyridine-7(6H)-carboxamide]: the melting point lay within 148 to 151 °C.
For `O=C(c1ccccc1)N1CCc2c(cnc3[nH]ncc23)C1` [Example 427, (8,9-dihydro-3H-pyrazolo[3,4-c][2,7]naphthyridin-7(6H)-yl)(phenyl)methanone], the melting point lay in the range of 198 to 200 °C.
On to `O=C(NC1CCc2c(cnc3[nH]ncc23)C1)c1ccccc1` (stereo not shown) [Example 430, N-(6,7,8,9-tetrahydro-3H-pyrazolo[3,4-c]isoquinolin-7-yl)benzamide], for which the melting point is above 300 °C.
`O=C(c1ccccc1)N1CCc2cnc3[nH]ncc3c2-c2ccccc21` [Example 431, 8-(phenylcarbonyl)-3,6,7,8-tetrahydropyrazolo[4′,3′:5,6]pyrido[3,4-d][1]benzazepine] returned a melting point above 150 °C.
Turning to `O=C(O)C(c1ccccc1)N1CCc2c(cnc3[nH]ncc23)C1` (stereo not shown) [Example 433, 2-(8,9-dihydro-3H-pyrazolo[3,4-c][2,7]naphthyridin-7(6H)-yl)-2-phenylacetic acid], the melting point fell in the range of 237 to 240 °C.
For the compound `COc1ccc(Cn2ncc3c4c(cnc32)CN(c2ncnc3[nH]nc(C(=O)c5ccccc5)c23)CC4)cc1` [Example 434, (4-(3-(4-methoxybenzyl)-8,9-dihydro-3H-pyrazolo[3,4-c][2,7]naphthyridin-7(6H)-yl)-1H-pyrazolo[3,4-d]pyrimidin-3-yl)(phenyl)methanone], the melting point is above 145 °C.
The compound `O=C(c1ccccc1)c1c[nH]c2ncnc(N3CCc4c(cnc5[nH]nc(Br)c45)C3)c12` [Example 436] showed a melting point of 300 to 302 °C.
Compound `COc1ccc(Cn2ncc3c4c(cnc32)CN(C(=N)N)CC4)cc1` [Example 474, 3-(4-methoxybenzyl)-8,9-dihydro-3H-pyrazolo[3,4-c][2,7]naphthyridine-7(6H)-carboximidamide] had a melting point of 255 to 256 °C.
Consider `O=C(Cc1ccccc1)N1CCc2c(cnc3[nH]ncc23)C1` [Example 476, 1-(8,9-dihydro-3H-pyrazolo[3,4-c][2,7]naphthyridin-7(6H)-yl)-2-phenylethanone], for which the melting point fell in the range of 164 to 166 °C.
For `O=C(NC[C@@H]1CCCO1)c1cccc(NC(=O)N2CCc3c(cnc4[nH]ncc34)C2)c1` [N-(3-{[(2S)-tetrahydrofuran-2-ylmethyl]carbamoyl}phenyl)-3,6,8,9-tetrahydro-7H-pyrazolo[3,4-c][2,7]naphthyridine-7-carboxamide], the inhibition at 10 µM in data set [1], in data set [4], in data set [2] and in data set [3] was 75 to 100% throughout.
With `CC(=O)Nc1cccc(-c2n[nH]c3ncc4c(c23)CCNC4)c1` [N-[3-(6,7,8,9-tetrahydro-3H-pyrazolo[3,4-c][2,7]naphthyridin-1-yl)phenyl]acetamide], the inhibition at 10 µM in data set [1] fell in the range of 50 to 74%; in data set [4] it was 75 to 100%; in data set [2], 25 to 49%.
Turning to `c1ccc(CNC2CCc3c(cnc4[nH]ncc34)C2)cc1` (stereo not shown) [N-benzyl-6,7,8,9-tetrahydro-3H-pyrazolo[3,4-c]isoquinolin-7-amine], the inhibition at 10 µM in data set [1], in data set [2] and in data set [3] was below 24% each time.
Take `c1ccc(C2Cc3cnc4[nH]ncc4c3-c3ccccc32)cc1` (stereo not shown) [drawing 555, 7-phenyl-6,7-dihydro-3H-benzo[f]pyrazolo[3,4-c]isoquinoline]: the inhibition at 10 µM in data set [1] was 25 to 49%; in data set [4], 25 to 49%; in data set [2] it was below 24%; in data set [3], below 24%.
`O=C(Nc1ccccc1)NC1CCc2c(cnc3[nH]ncc23)C1` (stereo not shown) [drawing 560, 1-phenyl-3-(6,7,8,9-tetrahydro-3H-pyrazolo[3,4-c]isoquinolin-7-yl)urea]: the inhibition at 10 µM in data set [1] and in data set [3] was below 24% each time.
With `COc1ccc2c(c1)-c1c(cnc3[nH]ncc13)CC2` [drawing 562, 10-methoxy-6,7-dihydro-3H-benzo[f]pyrazolo[3,4-c]isoquinoline], the inhibition at 10 µM in data set [1] was below 24%; in data set [4], 25 to 49%; in data set [3] it was below 24%.
As for `Cc1nc(-c2cccc(NC(=O)N3CCc4c(cnc5[nH]nc(Br)c45)C3)c2)no1` [drawing 581, 1-bromo-N-[3-(5-methyl-1,2,4-oxadiazol-3-yl)phenyl]-3,6,8,9-tetrahydro-7H-pyrazolo[3,4-c][2,7]naphthyridine-7-carboxamide], the inhibition at 10 µM in data set [4] and in data set [3] was below 24% throughout.
